Results published in patent publication US11173151B2, “Substituted triazole derivatives and uses thereof” (BAYER AKTIENGESELLSCHAFT, priority 2017, dated 2021).
Read-outs that look alike come from different tables or passages of the source.

Tests used:
human V1a receptor = biological target: T1, human V1a receptor (Homo sapiens, UniProt P37288); assay: Cellular in vitro assay for determining vasopressin receptor activity, V1a receptor cell line (CHO, aequorin luminescence); assay type: cell-based; details: for IC50: CHO cell line transfected with human V1a receptor, [Arg]-vasopressin at EC50 concentration, read-out: IC50 hV1a; for ratio IC50 hV2/hV1a: selectivity ratio IC50 hV2 / IC50 hV1a
T1 construct: expressed in transfected cells; host or cells: CHO K1 (ATCC), also stably transfected with a modified aequorin
T1 sequence (P37288 whole entry): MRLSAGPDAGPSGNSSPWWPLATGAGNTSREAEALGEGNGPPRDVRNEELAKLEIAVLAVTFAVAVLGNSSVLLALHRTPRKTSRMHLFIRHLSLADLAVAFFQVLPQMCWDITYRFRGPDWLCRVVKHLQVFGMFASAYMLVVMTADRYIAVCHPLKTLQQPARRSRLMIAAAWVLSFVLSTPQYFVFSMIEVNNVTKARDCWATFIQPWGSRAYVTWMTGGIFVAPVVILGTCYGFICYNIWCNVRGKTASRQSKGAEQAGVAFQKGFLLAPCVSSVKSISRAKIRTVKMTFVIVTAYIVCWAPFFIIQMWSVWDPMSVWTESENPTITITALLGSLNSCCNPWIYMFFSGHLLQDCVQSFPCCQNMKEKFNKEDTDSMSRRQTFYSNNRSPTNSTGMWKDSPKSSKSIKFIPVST
Outline: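 Luminescence from reconstituted aequorin, reporting intracellular calcium release, was measured immediately after adding [Arg]-vasopressin at EC50 concentration to CHO K1 cells pretreated 10 minutes with graded compound concentrations. Inhibition gave IC50 values.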

human V2 receptor = biological target: T2, human V2 receptor (Homo sapiens, UniProt P30518); assay: Cellular in vitro assay for determining vasopressin receptor activity, V2 receptor cell line (CHO, CRE-luciferase); assay type: cell-based; details: CHO cell line transfected with human V2 receptor, [Arg8]-vasopressin at EC50 concentration, read-out: IC50 hV2
T2 construct: expressed in transfected cells; host or cells: CHO K1 (ATCC) expressing firefly luciferase under a CRE-responsive promoter
T2 sequence (P30518 whole entry): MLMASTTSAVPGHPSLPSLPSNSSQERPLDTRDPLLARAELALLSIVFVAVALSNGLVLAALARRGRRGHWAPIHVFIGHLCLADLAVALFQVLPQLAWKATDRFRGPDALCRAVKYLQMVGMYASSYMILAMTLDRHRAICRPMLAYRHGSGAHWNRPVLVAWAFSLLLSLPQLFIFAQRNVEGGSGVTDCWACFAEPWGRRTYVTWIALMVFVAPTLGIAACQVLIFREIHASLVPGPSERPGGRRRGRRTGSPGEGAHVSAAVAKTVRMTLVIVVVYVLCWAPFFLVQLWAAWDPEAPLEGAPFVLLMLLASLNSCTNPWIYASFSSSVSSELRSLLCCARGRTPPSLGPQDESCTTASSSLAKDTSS

| IC50 (human V1a receptor) [nM] | IC50 (human V2 receptor; 3 hours) [nM] | ratio IC50 hV2/hV1a (human V1a receptor) | IC50 (human V2 receptor) [nM] | SMILES |
| --- | --- | --- | --- | --- |
| 70.5 | 845 | – | – | O=C(c1cccc(Cl)c1-n1cnc(Cn2nc(-c3ccc(Cl)cc3)n(C[C@H](O)C(F)(F)F)c2=O)n1)N1CCC(O)(C(F)(F)F)C1 (mixture of isomers) [Example 379, 2-{[1-(2-Chloro-6-{[hydroxy-3-(trifluoromethyl)pyrrolidin-1-yl]carbonyl}phenyl)-1H-1,2,4-triazol-3-yl]methyl}-5-(4-chlorophenyl)-4-[(2S)-3,3,3-trifluoro-2-hydroxypropyl]-2,4-dihydro-3H-1,2,4-triazol-3-one] |
| 51 | – | 27.5 | 1400 | NC(CNC(=O)c1ncccc1-n1cnc(Cn2nc(-c3ccc(Cl)cc3)n(C[C@H](O)C(F)(F)F)c2=O)n1)C(F)(F)F (mixture of isomers) [Example 429, N-[(2R)-2-Amino-3,3,3-trifluoropropyl]-3-[3-({3-(4-chlorophenyl)-5-oxo-4-[(2S)-3,3,3-trifluoro-2-hydroxypropyl]-4,5-dihydro-1H-1,2,4-triazol-1-yl}methyl)-1H-1,2,4-triazol-1-yl]pyridine-2-carboxamide] |
| 44.5 | – | 16.0 | 710 | O=C(NCC(O)C(F)(F)F)c1ncccc1-n1cnc(Cn2nc(-c3ccc(Cl)cc3)n(C[C@H](O)C(F)(F)F)c2=O)n1 (mixture of isomers) [Example 430, 3-[3-({3-(4-Chlorophenyl)-5-oxo-4-[(2S)-3,3,3-trifluoro-2-hydroxypropyl]-4,5-dihydro-1H-1,2,4-triazol-1-yl}methyl)-1H-1,2,4-triazol-1-yl]-N-[3,3,3-trifluoro-2-hydroxypropyl]pyridine-2-carboxamide] |
| 25 | – | 33.0 | 825 | O=C(NC1CC1(F)F)c1ncccc1-n1cnc(Cn2nc(-c3ccc(Cl)cc3)n(C[C@H](O)C(F)(F)F)c2=O)n1 (mixture of isomers) [Example 436, 3-[3-({3-(4-Chlorophenyl)-5-oxo-4-[(2S)-3,3,3-trifluoro-2-hydroxypropyl]-4,5-dihydro-1H-1,2,4-triazol-1-yl}methyl)-1H-1,2,4-triazol-1-yl]-N-[2,2-difluorocyclopropyl]pyridine-2-carboxamide] |
| 100 | – | 45.5 | 4550 | CC1CN(C(=O)c2ncccc2-n2cnc(Cn3nc(-c4ccc(Cl)cc4)n(C[C@H](O)C(F)(F)F)c3=O)n2)CCO1 (mixture of isomers) [Example 440, 5-(4-Chlorophenyl)-2-{[1-(2-{[2-methylmorpholin-4-yl]carbonyl}pyridin-3-yl)-1H-1,2,4-triazol-3-yl]methyl}-4-[(2S)-3,3,3-trifluoro-2-hydroxypropyl]-2,4-dihydro-3H-1,2,4-triazol-3-one] |
| 175 | – | 34.6 | 6050 | NC(=O)C1CCCN1C(=O)c1ncccc1-n1cnc(Cn2nc(-c3ccc(Cl)cc3)n(C[C@H](O)C(F)(F)F)c2=O)n1 (mixture of isomers) [Example 441, 1-({3-[3-({3-(4-Chlorophenyl)-5-oxo-4-[(2S)-3,3,3-trifluoro-2-hydroxypropyl]-4,5-dihydro-1H-1,2,4-triazol-1-yl}methyl)-1H-1,2,4-triazol-1-yl]pyridin-2-yl}carbonyl)-prolinamide] |
| 190 | – | 24.5 | 4650 | O=C(c1ncccc1-n1cnc(Cn2nc(-c3ccc(Cl)cc3)n(C[C@H](O)C(F)(F)F)c2=O)n1)N1CCC(O)(C(F)(F)F)C1 (mixture of isomers) [Example 442, 5-(4-Chlorophenyl)-2-{[1-(2-{[3-hydroxy-3-(trifluoromethyl)pyrrolidin-1-yl]carbonyl}pyridin-3-yl)-1H-1,2,4-triazol-3-yl]methyl}-4-[(2S)-3,3,3-trifluoro-2-hydroxypropyl]-2,4-dihydro-3H-1,2,4-triazol-3-one] |
| 120 | – | 65.4 | 7850 | O=C(c1ncccc1-n1cnc(Cn2nc(-c3ccc(Cl)cc3)n(C[C@H](O)C(F)(F)F)c2=O)n1)N1CCOC(C(F)(F)F)C1 (mixture of isomers) [Example 444, 5-(4-Chlorophenyl)-4-[(2S)-3,3,3-trifluoro-2-hydroxypropyl]-2-{[1-(2-{[2-(trifluoromethyl)morpholin-4-yl]carbonyl}pyridin-3-yl)-1H-1,2,4-triazol-3-yl]methyl}-2,4-dihydro-3H-1,2,4-triazol-3-one] |
| 165 | – | 16.4 | 2700 | O=C(c1ncccc1-n1cnc(Cn2nc(-c3ccc(Cl)cc3)n(C[C@H](O)C(F)(F)F)c2=O)n1)N1CCNC(C(F)(F)F)C1 (mixture of isomers) [Example 448, 5-(4-Chlorophenyl)-4-[(2S)-3,3,3-trifluoro-2-hydroxypropyl]-2-{[1-(2-{[3-(trifluoromethyl)piperazin-1-yl]carbonyl}pyridin-3-yl)-1H-1,2,4-triazol-3-yl]methyl}-2,4-dihydro-3H-1,2,4-triazol-3-one] |

Second part, the compound before the results:

| SMILES | IC50 (human V1a receptor) [nM] | IC50 (human V2 receptor; 3 hours) [nM] | ratio IC50 hV2/hV1a (human V1a receptor) | IC50 (human V2 receptor) [nM] |
| --- | --- | --- | --- | --- |
| O=C(c1cccc(Cl)c1-n1cnc(Cn2nc(-c3ccc(Cl)cc3)n(C[C@H](O)C(F)(F)F)c2=O)n1)N1CCOC(C(F)(F)F)C1 (mixture of isomers) [Example 380, 5-(4-Chlorophenyl)-2-{[1-(2-chloro-6-{[2-(trifluoromethyl)morpholin-4-yl]carbonyl}phenyl)-1H-1,2,4-triazol-3-yl]methyl}-4-[(2S)-3,3,3-trifluoro-2-hydroxypropyl]-2,4-dihydro-3H-1,2,4-triazol-3-one] | 95.5 | 4000 | 41.9 | – |
| O=C(c1cccc(Cl)c1-n1cnc(Cn2nc(-c3ccc(Cl)cc3)n(C[C@H](O)C(F)(F)F)c2=O)n1)N1CCC(C(F)(F)F)C1 (mixture of isomers) [Example 386, 5-(4-Chlorophenyl)-2-{[1-(2-chloro-6-{[3-(trifluoromethyl)pyrrolidin-1-yl]carbonyl}phenyl)-1H-1,2,4-triazol-3-yl]methyl}-4-[(2S)-3,3,3-trifluoro-2-hydroxypropyl]-2,4-dihydro-3H-1,2,4-triazol-3-one] | 170 | 4150 | 24.4 | – |
| NC(CNC(=O)c1cccc(Cl)c1-n1cnc(Cn2nc(-c3ccc(Cl)cc3)n(C[C@H](O)C(F)(F)F)c2=O)n1)C(F)(F)F (mixture of isomers) [Example 390, N-[2-Amino-3,3,3-trifluoropropyl]-3-chloro-2-[3-({3-(4-chlorophenyl)-5-oxo-4-[(2S)-3,3,3-trifluoro-2-hydroxypropyl]-4,5-dihydro-1H-1,2,4-triazol-1-yl}methyl)-1H-1,2,4-triazol-1-yl]benzamide] | 69 | 530 | 7.7 | – |
| O=C(NC1CC1(F)F)c1cccc(Cl)c1-n1cnc(Cn2nc(-c3ccc(Cl)cc3)n(C[C@@H](O)C(F)(F)F)c2=O)n1 (mixture of isomers) [Example 395, 3-Chloro-2-[3-({3-(4-chlorophenyl)-5-oxo-4-[(2R)-3,3,3-trifluoro-2-hydroxypropyl]-4,5-dihydro-1H-1,2,4-triazol-1-yl}methyl)-1H-1,2,4-triazol-1-yl]-N-[2,2-difluorocyclopropyl]benzamide] | 82 | 5150 | 62.8 | – |
| NC(=O)C1CCCN1C(=O)c1cccc(Cl)c1-n1cnc(Cn2nc(-c3ccc(Cl)cc3)n(C[C@@H](O)C(F)(F)F)c2=O)n1 (mixture of isomers) [Example 400, 1-{3-Chloro-2-[3-({3-(4-chlorophenyl)-5-oxo-4-[(2R)-3,3,3-trifluoro-2-hydroxypropyl]-4,5-dihydro-1H-1,2,4-triazol-1-yl}methyl)-1H-1,2,4-triazol-1-yl]benzoyl}-prolinamide] | 570 | – | 56.1 | 32000 |
| O=C(NC1CC1F)c1cccc(Cl)c1-n1cnc(Cn2nc(-c3ccc(Cl)cc3)n(C[C@@H](O)C(F)(F)F)c2=O)n1 (mixture of isomers) [Example 406, 3-Chloro-2-[3-({3-(4-chlorophenyl)-5-oxo-4-[(2R)-3,3,3-trifluoro-2-hydroxypropyl]-4,5-dihydro-1H-1,2,4-triazol-1-yl}methyl)-1H-1,2,4-triazol-1-yl]-N-[2-fluorocyclopropyl]benzamide] | 26 | – | 390.4 | 10100 |
| NC(CNC(=O)c1cccc(Cl)c1-n1cnc(Cn2nc(-c3ccc(Cl)cc3)n(C[C@@H](O)C(F)(F)F)c2=O)n1)C(F)(F)F (mixture of isomers) [Example 408, N-[2-Amino-3,3,3-trifluoropropyl]-3-chloro-2-[3-({3-(4-chlorophenyl)-5-oxo-4-[(2R)-3,3,3-trifluoro-2-hydroxypropyl]-4,5-dihydro-1H-1,2,4-triazol-1-yl}methyl)-1H-1,2,4-triazol-1-yl]benzamide] | 400 | – | 21.3 | 8500 |
| O=C(NC1CC1(F)F)c1cccc(C(F)(F)F)c1-n1cnc(Cn2nc(-c3ccc(Cl)cc3)n(C[C@H](O)C(F)(F)F)c2=O)n1 (mixture of isomers) [Example 420, 2-[3-({3-(4-Chlorophenyl)-5-oxo-4-[(2S)-3,3,3-trifluoro-2-hydroxypropyl]-4,5-dihydro-1H-1,2,4-triazol-1-yl}methyl)-1H-1,2,4-triazol-1-yl]-N-[2,2-difluorocyclopropyl]-3-(trifluoromethyl)benzamide] | 58.5 | – | 19.7 | 1150 |
